Where two headings read alike, the source gives them in different places.
Columns and labels:
Experiment in all cases: Test D pre-/postemergence plant response
Assay type in all cases: in vivo
[1] = tested on: large (Lg) crabgrass (Digitaria sanguinalis); conditions: Digitaria sanguinalis; for pest or weed control at 16 g/ha: 16 g ai/ha; for pest or weed control at 31 g/ha: 31 g ai/ha; for pest or weed control at 62 g/ha: 62 g ai/ha; for pest or weed control at 125 g/ha: 125 g ai/ha
Summary of the method: (§1)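 Test chemicals were formulated in a non-phytotoxic solvent mixture containing surfactant and applied either preemergence to seeds in loam–sand soil or postemergence to plants 2 to 18 cm tall (1- to 4-leaf stage). Response was rated visually against controls after 13 to 15 days, from 0 (none) to 100 (complete control).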

[2] = tested on: blackgrass (Alopecurus myosuroides); conditions: Alopecurus myosuroides; for pest or weed control at 16 g/ha: 16 g ai/ha; for pest or weed control at 31 g/ha: 31 g ai/ha; for pest or weed control at 62 g/ha: 62 g ai/ha; for pest or weed control at 125 g/ha: 125 g ai/ha
Summary of the method: as §1

[3] = tested on: barnyardgrass (Echinochloa crus-galli); conditions: Echinochloa crus-galli; for pest or weed control at 16 g/ha: 16 g ai/ha; for pest or weed control at 31 g/ha: 31 g ai/ha; for pest or weed control at 62 g/ha: 62 g ai/ha; for pest or weed control at 125 g/ha: 125 g ai/ha
Summary of the method: as §1

[4] = tested on: galium (catchweed bedstraw, Galium aparine); conditions: Galium; for pest or weed control at 31 g/ha: 31 g ai/ha; for pest or weed control at 62 g/ha: 62 g ai/ha; for pest or weed control at 125 g/ha: 125 g ai/ha
Summary of the method: as §1

[5] = tested on: johnsongrass (Sorghum halepense); conditions: Sorghum halepense; for pest or weed control at 31 g/ha: 31 g ai/ha; for pest or weed control at 62 g/ha: 62 g ai/ha; for pest or weed control at 125 g/ha: 125 g ai/ha
Summary of the method: as §1

[6] = tested on: ragweed (common ragweed, Ambrosia elatior); conditions: Ambrosia artemisiifolia; for pest or weed control at 31 g/ha: 31 g ai/ha; for pest or weed control at 62 g/ha: 62 g ai/ha; for pest or weed control at 125 g/ha: 125 g ai/ha
Summary of the method: as §1

[7] = tested on: lambsquarters (Chenopodium album); conditions: Chenopodium album; for pest or weed control at 31 g/ha: 31 g ai/ha; for pest or weed control at 62 g/ha: 62 g ai/ha; for pest or weed control at 125 g/ha: 125 g ai/ha
Summary of the method: as §1

[8] = tested on: velvetleaf (Abutilon theophrasti); conditions: Abutilon theophrasti; for pest or weed control at 31 g/ha: 31 g ai/ha; for pest or weed control at 62 g/ha: 62 g ai/ha; for pest or weed control at 125 g/ha: 125 g ai/ha
Summary of the method: as §1

soybean (Glycine max) = conditions: Glycine max; for plant injury at 31 g/ha: 31 g ai/ha
Summary of the method: as §1

[9] = post-emergence, Postemergence, scale 0 to 100 (0 no effect, 100 complete control), read-out: Crabgrass, Large plant response rating
[10] = post-emergence, Postemergence, scale 0 to 100, 0 no effect, 100 complete control, read-out: Plant response rating, Crabgrass, Large
[11] = pre-emergence, Preemergence, scale 0 to 100 (0 no effect, 100 complete control), read-out: Plant response rating, Crabgrass, Large
[12] = post-emergence, Postemergence, scale 0 to 100 (0 no effect, 100 complete control), read-out: Blackgrass plant response rating
[13] = post-emergence, Postemergence, scale 0 to 100, 0 no effect, 100 complete control, read-out: Plant response rating, Blackgrass
[14] = pre-emergence, Preemergence, scale 0 to 100 (0 no effect, 100 complete control), read-out: Plant response rating, Blackgrass
[15] = post-emergence, Postemergence, scale 0 to 100 (0 no effect, 100 complete control), read-out: Barnyardgrass plant response rating
[16] = post-emergence, Postemergence, scale 0 to 100, 0 no effect, 100 complete control, read-out: Plant response rating, Barnyardgrass
[17] = pre-emergence, Preemergence, scale 0 to 100 (0 no effect, 100 complete control), read-out: Plant response rating, Barnyardgrass
[18] = post-emergence, Postemergence, scale 0 to 100, 0 no effect, 100 complete control, read-out: Plant response rating, Galium
[19] = pre-emergence, Preemergence, scale 0 to 100 (0 no effect, 100 complete control), read-out: Plant response rating, Galium
[20] = post-emergence, Postemergence, scale 0 to 100, 0 no effect, 100 complete control, read-out: Plant response rating, Johnsongrass
[21] = pre-emergence, Preemergence, scale 0 to 100 (0 no effect, 100 complete control), read-out: Plant response rating, Johnsongrass
[22] = post-emergence, Postemergence, scale 0 to 100, 0 no effect, 100 complete control, read-out: Plant response rating, Ragweed
[23] = pre-emergence, Preemergence, scale 0 to 100 (0 no effect, 100 complete control), read-out: Plant response rating, Ragweed
[24] = post-emergence, Postemergence, scale 0 to 100, 0 no effect, 100 complete control, read-out: Plant response rating, Lambsquarters
[25] = pre-emergence, Preemergence, scale 0 to 100 (0 no effect, 100 complete control), read-out: Plant response rating, Lambsquarters
[26] = post-emergence, Postemergence, scale 0 to 100, 0 no effect, 100 complete control, read-out: Plant response rating, Velvetleaf
[27] = pre-emergence, Preemergence, scale 0 to 100 (0 no effect, 100 complete control), read-out: Plant response rating, Velvetleaf

SMILES: Fc1cccc(Oc2ncc(Cl)cn2)c1-c1cc(C(F)F)no1 [Compound 144, 5-chloro-2-[2-[3-(difluoromethyl)-5-isoxazolyl]-3-fluorophenoxy]pyrimidine]
- pest or weed control at 16 g/ha [1, 9]: 5%
- pest or weed control at 31 g/ha [1, 9]: 10%
- pest or weed control at 62 g/ha [1, 10]: 15%
- pest or weed control at 125 g/ha [1, 10]: 20%
- pest or weed control at 125 g/ha ([1]; pre-emergence, Preemergence, read-out: Plant response rating (scale 0 to 100), Crabgrass, Large): 100%
- pest or weed control at 16 g/ha [1, 11]: 90%
- pest or weed control at 31 g/ha [1, 11]: 98%
- pest or weed control at 62 g/ha [1, 11]: 100%
- pest or weed control at 16 g/ha [2, 12]: 5%
- pest or weed control at 31 g/ha [2, 12]: 15%
- pest or weed control at 62 g/ha [2, 13]: 15%
- pest or weed control at 125 g/ha [2, 13]: 75%
- pest or weed control at 125 g/ha ([2]; pre-emergence, Preemergence, read-out: Plant response rating (scale 0 to 100), Blackgrass): 95%
- pest or weed control at 16 g/ha [2, 14]: 55%
- pest or weed control at 31 g/ha [2, 14]: 95%
- pest or weed control at 62 g/ha [2, 14]: 95%
- pest or weed control at 16 g/ha [3, 15]: 5%
- pest or weed control at 31 g/ha [3, 15]: 5%
- pest or weed control at 62 g/ha [3, 16]: 10%
- pest or weed control at 125 g/ha [3, 16]: 15%
- pest or weed control at 125 g/ha ([3]; pre-emergence, Preemergence, read-out: Plant response rating (scale 0 to 100), Barnyardgrass): 100%
- pest or weed control at 16 g/ha [3, 17]: 70%
- pest or weed control at 31 g/ha [3, 17]: 80%
- pest or weed control at 62 g/ha [3, 17]: 100%
- pest or weed control at 31 g/ha ([4]; post-emergence, Postemergence, scale 0 to 100 (0 no effect, 100 complete control), read-out: Galium plant response rating): 85%
- pest or weed control at 62 g/ha [4, 18]: 90%
- pest or weed control at 125 g/ha [4, 18]: 95%
- pest or weed control at 125 g/ha ([4]; pre-emergence, Preemergence, read-out: Plant response rating (scale 0 to 100), Galium): 98%
- pest or weed control at 16 g/ha ([4]; pre-emergence, Preemergence, 16 g ai/ha, scale 0 to 100 (0 no effect, 100 complete control), read-out: Plant response rating, Galium): 95%
- pest or weed control at 31 g/ha [4, 19]: 98%
- pest or weed control at 62 g/ha [4, 19]: 98%
- pest or weed control at 31 g/ha ([5]; post-emergence, Postemergence, scale 0 to 100 (0 no effect, 100 complete control), read-out: Johnsongrass plant response rating): 10%
- pest or weed control at 62 g/ha [5, 20]: 10%
- pest or weed control at 125 g/ha [5, 20]: 50%
- pest or weed control at 125 g/ha ([5]; pre-emergence, Preemergence, read-out: Plant response rating (scale 0 to 100), Johnsongrass): 100%
- pest or weed control at 16 g/ha ([5]; pre-emergence, Preemergence, 16 g ai/ha, scale 0 to 100 (0 no effect, 100 complete control), read-out: Plant response rating, Johnsongrass): 20%
- pest or weed control at 31 g/ha [5, 21]: 75%
- pest or weed control at 62 g/ha [5, 21]: 100%
- pest or weed control at 31 g/ha ([6]; post-emergence, Postemergence, scale 0 to 100 (0 no effect, 100 complete control), read-out: Ragweed plant response rating): 60%
- pest or weed control at 62 g/ha [6, 22]: 70%
- pest or weed control at 125 g/ha [6, 22]: 75%
- pest or weed control at 125 g/ha ([6]; pre-emergence, Preemergence, read-out: Plant response rating (scale 0 to 100), Ragweed): 100%
- pest or weed control at 16 g/ha ([6]; pre-emergence, Preemergence, 16 g ai/ha, scale 0 to 100 (0 no effect, 100 complete control), read-out: Plant response rating, Ragweed): 75%
- pest or weed control at 31 g/ha [6, 23]: 85%
- pest or weed control at 62 g/ha [6, 23]: 100%
- pest or weed control at 31 g/ha ([7]; post-emergence, Postemergence, scale 0 to 100 (0 no effect, 100 complete control), read-out: Lambsquarters plant response rating): 80%
- pest or weed control at 62 g/ha [7, 24]: 90%
- pest or weed control at 125 g/ha [7, 24]: 95%
- pest or weed control at 125 g/ha ([7]; pre-emergence, Preemergence, read-out: Plant response rating (scale 0 to 100), Lambsquarters): 100%
- pest or weed control at 16 g/ha ([7]; pre-emergence, Preemergence, 16 g ai/ha, scale 0 to 100 (0 no effect, 100 complete control), read-out: Plant response rating, Lambsquarters): 100%
- pest or weed control at 31 g/ha [7, 25]: 100%
- pest or weed control at 62 g/ha [7, 25]: 100%
- pest or weed control at 31 g/ha ([8]; post-emergence, Postemergence, scale 0 to 100 (0 no effect, 100 complete control), read-out: Velvetleaf plant response rating): 55%
- pest or weed control at 62 g/ha [8, 26]: 75%
- pest or weed control at 125 g/ha [8, 26]: 98%
- pest or weed control at 125 g/ha ([8]; pre-emergence, Preemergence, read-out: Plant response rating (scale 0 to 100), Velvetleaf): 100%
- pest or weed control at 16 g/ha ([8]; pre-emergence, Preemergence, 16 g ai/ha, scale 0 to 100 (0 no effect, 100 complete control), read-out: Plant response rating, Velvetleaf): 100%
- pest or weed control at 31 g/ha [8, 27]: 100%
- pest or weed control at 62 g/ha [8, 27]: 100%
- plant injury at 31 g/ha (soybean (Glycine max); post-emergence, Postemergence, scale 0 to 100 (0 no effect, 100 complete control), read-out: Soybean plant response rating): 80%
- plant injury at 62 g/ha (soybean (Glycine max); post-emergence, Postemergence, 62 g ai/ha, scale 0 to 100, 0 no effect, 100 complete control, read-out: Plant response rating, Soybean): 95%
- plant injury at 125 g/ha (soybean (Glycine max); pre-emergence, Preemergence, 125 g ai/ha, read-out: Plant response rating (scale 0 to 100), Soybean): 95%
- plant injury at 16 g/ha (soybean (Glycine max); pre-emergence, Preemergence, 16 g ai/ha, scale 0 to 100 (0 no effect, 100 complete control), read-out: Plant response rating, Soybean): 35%
- plant injury at 31 g/ha (soybean (Glycine max); pre-emergence, Preemergence, scale 0 to 100 (0 no effect, 100 complete control), read-out: Plant response rating, Soybean): 75%

— patent US10131652B2, “Pyrimidinyloxy benzene derivatives as herbicides” (E. I. DU PONT DE NEMOURS AND COMPANY, priority 2014, dated 2018)
